According to ChEMBL document CHEMBL5584264 (Bioorg Med Chem Lett, 2024):
In brackets after ≈: the same amount, converted by molar mass.

Columns and labels:
RAW264.7 [1] = assay: Antiinflammatory activity against LPS-induced mouse RAW264.7 cells assessed as reduction in TNF-alpha level at 1 uM preincubated with compound for 1 hr followed by LPS-induction and measured after 24 hrs by ELISA analysis relative to control; format: functional; design: scale not given: the % may be the effect or the level left; conditions: time 25 hrs
RAW264.7 [2] = assay: Antiinflammatory activity against LPS-induced mouse RAW264.7 cells assessed as cell viability at 10 uM by celltiter-blue cell viability assay; format: functional; conditions: read-out: Activity
[3] = molecular target: Protein cereblon/DNA damage-binding protein 1 (Homo sapiens) (UniProt Q96SW2+Q16531); assay: Displacement of Cy5-tagged thalidomide-like probe from human CRBN/DDB1 complex by fluorescence polarization based CRBN binding assay; format: protein assay
Chain of Protein cereblon/DNA damage-binding protein 1 (Homo sapiens) (Q16531 2-1140 partner limits assumed): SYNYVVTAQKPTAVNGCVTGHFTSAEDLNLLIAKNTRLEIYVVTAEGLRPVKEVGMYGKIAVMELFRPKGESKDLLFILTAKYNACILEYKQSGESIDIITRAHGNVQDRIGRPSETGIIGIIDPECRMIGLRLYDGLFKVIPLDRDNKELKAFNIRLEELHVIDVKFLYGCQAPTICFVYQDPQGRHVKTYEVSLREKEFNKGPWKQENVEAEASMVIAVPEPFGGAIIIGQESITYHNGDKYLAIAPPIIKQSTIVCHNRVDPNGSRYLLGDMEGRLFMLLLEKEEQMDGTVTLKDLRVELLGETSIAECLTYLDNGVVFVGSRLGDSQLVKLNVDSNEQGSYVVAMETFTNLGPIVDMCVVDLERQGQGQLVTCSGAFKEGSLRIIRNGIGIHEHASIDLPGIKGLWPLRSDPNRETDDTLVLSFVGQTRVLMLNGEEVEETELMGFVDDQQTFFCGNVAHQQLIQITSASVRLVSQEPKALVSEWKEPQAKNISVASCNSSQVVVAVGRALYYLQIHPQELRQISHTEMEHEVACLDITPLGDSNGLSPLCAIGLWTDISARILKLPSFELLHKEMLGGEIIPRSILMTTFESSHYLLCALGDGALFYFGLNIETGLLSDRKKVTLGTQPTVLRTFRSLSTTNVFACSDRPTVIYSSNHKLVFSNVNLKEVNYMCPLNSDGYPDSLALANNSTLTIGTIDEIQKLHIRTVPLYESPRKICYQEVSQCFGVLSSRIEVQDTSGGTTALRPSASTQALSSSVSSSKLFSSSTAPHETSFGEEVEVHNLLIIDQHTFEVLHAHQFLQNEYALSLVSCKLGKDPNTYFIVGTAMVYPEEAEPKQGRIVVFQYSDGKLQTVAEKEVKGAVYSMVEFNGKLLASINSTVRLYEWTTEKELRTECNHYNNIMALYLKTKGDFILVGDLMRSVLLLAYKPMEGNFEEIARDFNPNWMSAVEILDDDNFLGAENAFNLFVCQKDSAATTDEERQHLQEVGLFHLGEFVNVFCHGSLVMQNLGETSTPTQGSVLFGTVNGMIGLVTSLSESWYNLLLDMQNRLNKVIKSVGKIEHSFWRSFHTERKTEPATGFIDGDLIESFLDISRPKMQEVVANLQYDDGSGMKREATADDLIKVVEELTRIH
Chain of Protein cereblon/DNA damage-binding protein 1 (Homo sapiens) (Q96SW2 whole entry): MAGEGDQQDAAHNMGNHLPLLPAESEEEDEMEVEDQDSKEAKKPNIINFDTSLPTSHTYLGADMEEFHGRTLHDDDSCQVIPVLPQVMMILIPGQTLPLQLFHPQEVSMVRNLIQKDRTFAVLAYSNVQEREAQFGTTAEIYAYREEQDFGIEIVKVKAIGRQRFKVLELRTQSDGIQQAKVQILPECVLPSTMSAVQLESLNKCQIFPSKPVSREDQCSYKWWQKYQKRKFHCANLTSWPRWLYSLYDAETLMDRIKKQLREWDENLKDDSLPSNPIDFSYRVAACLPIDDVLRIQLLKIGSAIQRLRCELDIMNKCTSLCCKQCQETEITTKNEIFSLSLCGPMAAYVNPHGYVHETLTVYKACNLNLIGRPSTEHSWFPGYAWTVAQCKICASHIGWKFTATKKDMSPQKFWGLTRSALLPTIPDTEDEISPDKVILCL

RAW264.7 [4] = assay: Antiinflammatory activity against LPS-induced mouse RAW264.7 cells assessed as reduction in TNF-alpha level at 10 uM preincubated with compound for 1 hr followed by LPS-induction and measured after 24 hrs by ELISA analysis relative to control; format: functional; design: scale not given: the % may be the effect or the level left; conditions: time 25 hrs
RAW264.7 [5] = assay: Antiinflammatory activity against LPS-induced mouse RAW264.7 cells assessed as reduction in nitrite level at 10 uM preincubated with compound for 1 hr followed by LPS-induction and measured after 24 hrs by Fluorometric Assay relative to control; format: functional; design: scale not given: the % may be the effect or the level left; conditions: time 25 hrs
RAW264.7 [6] = assay: Antiinflammatory activity against LPS-induced mouse RAW264.7 cells assessed as reduction in IL-6 level at 30 uM preincubated with compound for 1 hr followed by LPS-induction and measured after 24 hrs by ELISA analysis relative to control; format: functional; design: scale not given: the % may be the effect or the level left; conditions: time 25 hrs
RAW264.7 [7] = assay: Antiinflammatory activity against LPS-induced mouse RAW264.7 cells assessed as reduction in TNF-alpha level at 30 uM preincubated with compound for 1 hr followed by LPS-induction and measured after 24 hrs by ELISA analysis relative to control; format: functional; design: scale not given: the % may be the effect or the level left; conditions: time 25 hrs
RAW264.7 [8] = assay: Antiinflammatory activity against LPS-induced mouse RAW264.7 cells assessed as cell viability at 30 uM by celltiter-blue cell viability assay; format: functional; conditions: read-out: Activity
RAW264.7 [9] = assay: Antiinflammatory activity against LPS-induced mouse RAW264.7 cells assessed as reduction in IL-6 level at 10 uM preincubated with compound for 1 hr followed by LPS-induction and measured after 24 hrs by ELISA analysis relative to control; format: functional; design: scale not given: the % may be the effect or the level left; conditions: time 25 hrs
RAW264.7 [10] = assay: Antiinflammatory activity against LPS-induced mouse RAW264.7 cells assessed as reduction in nitrite level at 1 uM preincubated with compound for 1 hr followed by LPS-induction and measured after 24 hrs by Fluorometric Assay relative to control; format: functional; design: scale not given: the % may be the effect or the level left; conditions: time 25 hrs
RAW264.7 [11] = assay: Antiinflammatory activity against LPS-induced mouse RAW264.7 cells assessed as reduction in nitrite level preincubated with compound for 1 hr followed by LPS-induction and measured after 24 hrs by Fluorometric Assay; format: functional, cell-based; conditions: dose 1-30 µM, time 25.0 hrs
RAW264.7 [12] = assay: Antiinflammatory activity against LPS-induced mouse RAW264.7 cells assessed as reduction in IL-6 level preincubated with compound for 1 hr followed by LPS-induction and measured after 24 hrs by ELISA analysis; format: functional, cell-based; conditions: dose 1-30 µM, time 25.0 hrs
RAW264.7 [13] = assay: Antiinflammatory activity against LPS-induced mouse RAW264.7 cells assessed as cell viability at 1 uM by celltiter-blue cell viability assay; format: functional; conditions: read-out: Activity
RAW264.7 [14] = assay: Antiinflammatory activity against LPS-induced mouse RAW264.7 cells assessed as reduction in nitrite level at 30 uM preincubated with compound for 1 hr followed by LPS-induction and measured after 24 hrs by Fluorometric Assay relative to control; format: functional; design: scale not given: the % may be the effect or the level left; conditions: time 25 hrs
[15] = molecular target: 5-hydroxytryptamine receptor 2A (Homo sapiens, UniProt P28223); assay: Displacement of [3H]DTG from 5HT2A receptor (unknown origin) assessed as inhibition constant
Chain of 5-hydroxytryptamine receptor 2A (P28223 whole entry): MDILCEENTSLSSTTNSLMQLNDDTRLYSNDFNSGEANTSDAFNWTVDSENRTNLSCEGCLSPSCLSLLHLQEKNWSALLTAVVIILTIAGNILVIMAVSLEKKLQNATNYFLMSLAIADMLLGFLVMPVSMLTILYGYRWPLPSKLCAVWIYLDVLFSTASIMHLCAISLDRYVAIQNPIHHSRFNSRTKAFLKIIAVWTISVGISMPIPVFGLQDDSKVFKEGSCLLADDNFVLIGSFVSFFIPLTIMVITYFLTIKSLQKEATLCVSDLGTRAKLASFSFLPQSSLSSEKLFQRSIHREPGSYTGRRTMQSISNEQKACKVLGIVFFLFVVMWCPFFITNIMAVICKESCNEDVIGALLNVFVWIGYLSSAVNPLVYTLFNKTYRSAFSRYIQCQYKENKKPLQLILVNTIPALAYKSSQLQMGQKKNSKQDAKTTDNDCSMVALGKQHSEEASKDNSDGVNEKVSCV

[16] = molecular target: Sigma intracellular receptor 2 (Homo sapiens, UniProt Q5BJF2); assay: Displacement of [3H]DTG from sigma-2 receptor (unknown origin) assessed as inhibition constant
Chain of Sigma intracellular receptor 2 (Q5BJF2 whole entry): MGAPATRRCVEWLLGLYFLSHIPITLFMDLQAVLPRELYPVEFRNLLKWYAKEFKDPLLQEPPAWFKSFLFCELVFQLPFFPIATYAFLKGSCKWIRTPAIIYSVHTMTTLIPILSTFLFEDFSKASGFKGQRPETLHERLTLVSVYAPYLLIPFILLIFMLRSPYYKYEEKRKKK

[17] = molecular target: Sigma non-opioid intracellular receptor 1 (Homo sapiens, UniProt Q99720); assay: Displacement of [3H]DTG from sigma-1 receptor (unknown origin) assessed as inhibition constant
Chain of Sigma non-opioid intracellular receptor 1 (Q99720 whole entry): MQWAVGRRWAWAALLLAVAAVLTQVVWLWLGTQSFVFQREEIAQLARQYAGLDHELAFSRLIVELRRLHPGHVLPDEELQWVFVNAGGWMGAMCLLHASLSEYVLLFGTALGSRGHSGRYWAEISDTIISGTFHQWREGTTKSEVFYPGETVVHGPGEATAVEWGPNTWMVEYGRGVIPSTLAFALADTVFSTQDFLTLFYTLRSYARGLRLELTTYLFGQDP

RAW264.7 [18] = assay: Antiinflammatory activity against LPS-induced mouse RAW264.7 cells assessed as reduction in IL-6 level at 1 uM preincubated with compound for 1 hr followed by LPS-induction and measured after 24 hrs by ELISA analysis relative to control; format: functional; design: scale not given: the % may be the effect or the level left; conditions: time 25 hrs
[19] = Solubility of compound in PBS at pH 7.4 by LC/MS analysis; format: physicochemical

| SMILES | Activity (RAW264.7 [1]) [%] | viability at 10 µM (RAW264.7 [2]) [%] | Activity [3] | Activity (RAW264.7 [4]) [%] | Activity (RAW264.7 [5]) [%] | Activity (RAW264.7 [6]) [%] | Activity (RAW264.7 [7]) [%] | viability at 30 µM (RAW264.7 [8]) [%] | Activity (RAW264.7 [9]) [%] | Activity (RAW264.7 [10]) [%] | Activity (RAW264.7 [11]) | Activity (RAW264.7 [12]) | viability at 1 µM (RAW264.7 [13]) [%] | Activity (RAW264.7 [14]) [%] | Ki [15] [µM] | Ki [16] [µM] | Ki [17] [µM] | Activity (RAW264.7 [18]) [%] | solubility [19] [µM] |
| --- | --- | --- | --- | --- | --- | --- | --- | --- | --- | --- | --- | --- | --- | --- | --- | --- | --- | --- | --- |
| CN1CCCC(N2C(=O)c3cccc(N)c3C2=O)C1 (racemic) | 111 | 95 | Dose-Dependent Effect | 116 | 105 | – | – | – | – | – | – | – | – | – | – | – | – | – | – |
| Nc1cccc2c1C(=O)N([C@H]1CCCNC1)C2=O | – | 102 | – | 94 | – | 94 | 94 | 103 | 102 | 110 | Dose-Dependent Effect | Dose-Dependent Effect | 104 | 83 | – | – | – | – | – |
| Nc1cccc2c1C(=O)N(C1CCCN(C(=O)C3CC3)C1)C2=O (stereo unspecified) | – | 102 | – | 100 | 94 | – | 100 | 109 | – | – | – | – | 99 | 89 | – | – | – | – | – |
| CCN1CCC[C@H](N2C(=O)c3cccc(N)c3C2=O)C1 | 114 | 96 | – | 111 | 120 | – | 109 | 94 | – | 115 | – | – | 100 | 114 | – | – | – | – | – |
| CCN1CCC[C@@H](N2C(=O)c3cccc(N)c3C2=O)C1 | 92 | 104 | – | 97 | 93 | – | 96 | 102 | – | 93 | Dose-Dependent Effect | – | 106 | 80 | – | – | – | – | – |
| CC(=O)N1CCCC(N2C(=O)c3cccc(N)c3C2=O)C1 (stereo unspecified) | 95 | 103 | Dose-Dependent Effect | 86 | 88 | 89 | 86 | 101 | 106 | 95 | Dose-Dependent Effect | – | 102 | 81 | 5.2 | 5.2 | 2.4 | 111 | – |
| CCN1CCCC(N2C(=O)c3cccc(N)c3C2=O)C1 (racemic) | 115 | 99 | – | 112 | 101 | – | 102 | 97 | – | 101 | – | – | 101 | 90 | – | – | – | – | – |
| Nc1cccc2c1C(=O)N(C1CCC(=O)NC1=O)C2=O (stereo unspecified) [POMALIDOMIDE] | – | – | – | – | – | – | – | – | – | – | – | – | – | – | – | – | – | – | 85 (≈ 23.2 µg/mL) |
| Nc1cccc2c1C(=O)N(C1CCCN(C(=O)C(F)(F)F)C1)C2=O (stereo unspecified) | – | 103 | – | – | 90 | – | 94 | 99 | – | 92 | – | – | 103 | 100 | – | – | – | – | – |
